Assay results taken from patent publication US20130029970A1 (priority 2009, published 2013).
Read-outs that look alike come from different tables or passages of the source.

Assays:
human CB2 (hCB2) = molecular target: T1, human CB2 (hCB2) (Homo sapiens, UniProt P34972); assay: 35S GTPγS binding assay, hCB2 agonist; type: biochemical
T1 construct: (cDNA clone) CNR0200000
How it was run: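 Agonist-stimulated [35S]GTPγS (0.1 nM) binding measured by scintillation proximity after 90 min at room temperature. Reaction buffer: 50 mM HEPES pH 7.4, 100 mM NaCl, 5 mM MgCl2, 0.001% saponin plus 20 uM GDP. Membranes (5 μg) came from transfected cells expressing hCB2 cDNA (pcDNA3.1+ vector).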

human CB2 receptors = molecular target: T2, human CB2 receptors (Homo sapiens, UniProt P34972); assay: cAMP assay in HEK-293 cells, hCB2 agonist; type: cell-based
T2 construct: (cDNA clone) CNR0200000
How it was run: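 Stable hCB2 HEK-293 cells in HBSS/10 mM HEPES/0.1% fatty-acid-free BSA incubated 30 min at 37° C with compound; forskolin 90 uM in 3× compound mix.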

[1] = GTPγS agonist, HEK-293 membranes, read-out: hCB2 EC50 (GTPyS ag)
[2] = inhibition of forskolin-stimulated cAMP, HEK-293 cells, read-out: hCB2 EC50 (cAMP ag)

T2 sequence (P34972 whole entry): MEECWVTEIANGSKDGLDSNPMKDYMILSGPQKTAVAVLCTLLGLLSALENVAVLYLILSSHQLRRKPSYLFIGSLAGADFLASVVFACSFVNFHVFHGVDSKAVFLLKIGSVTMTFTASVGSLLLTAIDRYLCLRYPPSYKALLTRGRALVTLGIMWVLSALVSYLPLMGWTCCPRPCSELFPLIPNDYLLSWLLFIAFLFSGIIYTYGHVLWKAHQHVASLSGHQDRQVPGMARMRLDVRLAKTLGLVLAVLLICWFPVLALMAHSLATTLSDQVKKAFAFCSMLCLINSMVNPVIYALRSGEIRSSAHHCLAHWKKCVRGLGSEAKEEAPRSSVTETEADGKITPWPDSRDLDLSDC
T1 sequence (P34972 whole entry): as above

Compound | EC50 (human CB2 (hCB2)) [nM] | EC50 (human CB2 receptors) [nM] | EC50 (human CB2 (hCB2); [1]) [nM] | EC50 (human CB2 receptors; [2]) [nM]
COc1ccc(C(=O)c2cc3cc(C)n(CCN4CCCCC4)c3s2)c(F)c1 [Compound 98, (2-Fluoro-4-methoxyphenyl)(5-methyl-6-(2-(piperidin-1-yl)ethyl)-6H-thieno[2,3-b]pyrrol-2-yl)methanone] | < 100 | < 100 | – | –
COc1ccc(C(=O)c2cc3cc(C)n(CCN4CCCCC4)c3s2)c(O)c1 [Compound 99, (2-Hydroxy-4-methoxyphenyl)(5-methyl-6-(2-(piperidin-1-yl)ethyl)-6H-thieno[2,3-b]pyrrol-2-yl)methanone] | < 100 | < 100 | – | –
COc1ccc(C(O)c2cc3cc(C)n(CCN4CCOCC4)c3s2)cc1 (stereo not drawn) [Compound 100, (4-Methoxyphenyl)(5-methyl-6-(2-morpholinoethyl)-6H-thieno[2,3-b]pyrrol-2-yl)methanol] | – | – | < 100 | < 100
COc1ccc(C(C)(O)c2cc3cc(C)n(CCN4CCOCC4)c3s2)cc1 (stereo not drawn) [Compound 101, 1-(4-methoxyphenyl)-1-(5-methyl-6-(2-morpholinoethyl)-6H-thieno[2,3-b]pyrrol-2-yl)ethanol] | – | – | < 100 | < 100
COc1ccc(C(=O)c2cc3cc(C)n(CCCCNS(C)(=O)=O)c3s2)cc1 [Compound 102, N-(4-(2-(4-Methoxybenzoyl)-5-methyl-6H-thieno[2,3-b]pyrrol-6-yl)butyl)methanesulfonamide] | – | – | < 100 | < 100
COc1ccc(Cn2c(C)cc3cc(C(=O)c4ccc(OC)cc4)sc32)cc1 [Compound 103, (6-(4-Methoxybenzyl)-5-methyl-6H-thieno[2,3-b]pyrrol-2-yl)(4-methoxyphenyl)methanone] | 100 to 1000 | 100 to 1000 | – | –
COc1ccc(C(=S)c2cc3cc(C)n(CCN4CCOCC4)c3s2)cc1 [Compound 104, (4-methoxyphenyl)(5-methyl-6-(2-morpholinoethyl)-6H-thieno[2,3-b]pyrrol-2-yl)methanethione] | 100 to 1000 | 100 to 1000 | – | –
COc1ccc(C(=O)c2cc3cc(C)n(CCCNS(N)(=O)=O)c3s2)cc1 [Compound 105] | 100 to 1000 | 1000 to 10000 | – | –
Cc1cc2cc(C(=O)c3ccc4c(c3)OCO4)sc2n1CCN1CCOCC1 [Compound 106, Benzo[d][1,3]dioxol-5-yl(5-methyl-6-(2-morpholinoethyl)-6H-thieno[2,3-b]pyrrol-2-yl)methanone] | < 100 | < 100 | – | –
COc1ccc(C(=O)c2cc3cc(C)n(CCCNC(C)(C)C)c3s2)cc1 [Compound 108, (6-(3-(tert-Butylamino)propyl)-5-methyl-6H-thieno[2,3-b]pyrrol-2-yl)(4-methoxyphenyl)methanone] | 100 to 1000 | 1000 to 10000 | – | –
COc1ccc(C(=O)c2cc3cc(C)n(CCCNS(C)(=O)=O)c3s2)cn1 [Compound 109, N-(3-(2-(6-Methoxynicotinoyl)-5-methyl-6H-thieno[2,3-b]pyrrol-6-yl)propyl)methanesulfonamide] | – | – | < 100 | < 100
COc1ccc(C(=O)c2cc3cc(C)n(CCN4CCSCC4)c3s2)cc1 [Compound 110, (4-Methoxyphenyl)(5-methyl-6-(2-thiomorpholinoethyl)-6H-thieno[2,3-b]pyrrol-2-yl)methanone] | < 100 | < 100 | – | –
Cc1cc2cc(C(=O)c3ccc(OC(C)C)cc3)sc2n1CCN1CCOCC1 [Compound 111, (4-Isopropoxyphenyl)(5-methyl-6-(2-morpholinoethyl)-6H-thieno[2,3-b]pyrrol-2-yl)methanone] | 100 to 1000 | < 100 | – | –
COc1ccc(C(=O)c2cc3cc(C)n(Cc4ccncc4)c3s2)cc1 [Compound 112, (4-Methoxyphenyl)(5-methyl-6-(pyridin-4-ylmethyl)-6H-thieno[2,3-b]pyrrol-2-yl)methanone] | 100 to 1000 | 100 to 1000 | – | –
COc1ccc(C(=O)c2cc3cc(C)n(S(=O)(=O)N(C)C)c3s2)cn1 [Compound 113, 2-(6-Methoxynicotinoyl)-N,N,5-trimethyl-6H-thieno[2,3-b]pyrrole-6-sulfonamide] | < 100 | < 100 | – | –
COc1ccc(C(=O)c2cc3cc(C)n(Cc4ccccc4)c3s2)c(Cl)c1 [Compound 114, (6-Benzyl-5-methyl-6H-thieno[2,3-b]pyrrol-2-yl)(2-chloro-4-methoxyphenyl)methanone] | – | – | < 100 | 1000 to 10000
CSc1ccc(C(=O)c2cc3cc(C)n(CCN4CCOCC4)c3s2)cc1 [Compound 115, (5-Methyl-6-(2-morpholinoethyl)-6H-thieno[2,3-b]pyrrol-2-yl)(4-(methylthio)phenyl)methanone] | 100 to 1000 | 100 to 1000 | – | –

Compound | EC50 (human CB2 (hCB2)) [nM] | EC50 (human CB2 receptors) [nM] | EC50 (human CB2 (hCB2); [1]) [nM] | EC50 (human CB2 receptors; [2]) [nM]
COc1ccc(C(=O)c2cc3cc(C)n(CCN4CCOCC4)c3s2)cc1Cl [Compound 116, (3-Chloro-4-methoxyphenyl)(5-methyl-6-(2-morpholinoethyl)-6H-thieno[2,3-b]pyrrol-2-yl)methanone] | < 100 | < 100 | – | –
COc1ccc(C(=O)c2cc3cc(C)n(CCN4CCCCC4)c3s2)cn1 [Compound 117, (6-Methoxypyridin-3-yl)(5-methyl-6-(2-(piperidin-1-yl)ethyl)-6H-thieno[2,3-b]pyrrol-2-yl)methanone] | < 100 | < 100 | – | –
CCc1ccc(C(=O)c2cc3cc(C)n(CCN4CCOCC4)c3s2)cc1 [Compound 122, (4-Ethylphenyl)(5-methyl-6-(2-morpholinoethyl)-6H-thieno[2,3-b]pyrrol-2-yl)methanone] | < 100 | < 100 | – | –
Cc1cc2cc(C(=O)c3cccc(Cl)n3)sc2n1CCN1CCOCC1 [Compound 123, (6-Chloropyridin-2-yl)(5-methyl-6-(2-morpholinoethyl)-6H-thieno[2,3-b]pyrrol-2-yl)methanone] | 100 to 1000 | < 100 | – | –
Cc1ccc(C(=O)c2cc3cc(C)n(CCN4CCOCC4)c3s2)cc1 [Compound 124, (5-Methyl-6-(2-morpholinoethyl)-6H-thieno[2,3-b]pyrrol-2-yl)(p-tolyl)methanone] | < 100 | < 100 | – | –
Cc1ccc(C(O)c2cc3cc(C)n(CCN4CCOCC4)c3s2)cn1 (stereo not drawn) [Compound 125, (5-Methyl-6-(2-morpholinoethyl)-6H-thieno[2,3-b]pyrrol-2-yl)(6-methylpyridin-3-yl)methanol] | 100 to 1000 | 100 to 1000 | – | –
COc1cc(F)c(C(=O)c2cc3cc(C)n(CCN4CCOCC4)c3s2)c(F)c1 [Compound 127, (2,6-difluoro-4-methoxyphenyl)(5-methyl-6-(2-morpholinoethyl)-6H-thieno[2,3-b]pyrrol-2-yl)methanone] | < 100 | < 100 | – | –
Cc1ccc(C(=O)c2cc3cc(C)n(CCN4CCOCC4)c3s2)cn1 [Compound 130, (5-methyl-6-(2-morpholinoethyl)-6H-thieno[2,3-b]pyrrol-2-yl)(6-methylpyridin-3-yl)methanone] | 100 to 1000 | 100 to 1000 | – | –
COc1ccc(C(=O)c2cc3cc(C)n(CCN4CCOCC4)c3s2)nc1 [Compound 131, (5-methoxypyridin-2-yl)(5-methyl-6-(2-morpholinoethyl)-6H-thieno[2,3-b]pyrrol-2-yl)methanone] | < 100 | < 100 | – | –
Cc1cc2cc(C(=O)c3ccc(N(C)C(=O)OC(C)(C)C)cc3)sc2n1CCN1CCOCC1 [Compound 132, tert-butylmethyl(4-(5-methyl-6-(2-morpholinoethyl)-6H-thieno[2,3-b]pyrrole-2-carbonyl)phenyl)carbamate] | 100 to 1000 | 100 to 1000 | – | –
CNc1ccc(C(=O)c2cc3cc(C)n(CCN4CCOCC4)c3s2)cc1 [Compound 134, (5-methyl-6-(2-morpholinoethyl)-6H-thieno[2,3-b]pyrrol-2-yl)(4-(methylamino)phenyl)methanone] | 100 to 1000 | < 100 | – | –
COc1ccc(C(=O)c2cc3c(Cl)c(C)n(CCN4CCOCC4)c3s2)cc1 [Compound 140, (4-chloro-5-methyl-6-(2-morpholinoethyl)-6H-thieno[2,3-b]pyrrol-2-yl)(4-methoxyphenyl)methanone] | < 100 | < 100 | – | –
CCN(CC)CCn1c(C)cc2cc(C(=O)c3ccc(OC)nc3)sc21 [Compound 142, (6-(2-(diethylamino)ethyl)-5-methyl-6H-thieno[2,3-b]pyrrol-2-yl)(6-methoxypyridin-3-yl)methanone] | 100 to 1000 | 100 to 1000 | – | –
COc1ccc(C(=O)c2cc3cc(C)n(CC4CCOCC4)c3s2)cn1 [Compound 144, (6-methoxypyridin-3-yl)(5-methyl-6-((tetrahydro-2H-pyran-4-yl)methyl)-6H-thieno[2,3-b]pyrrol-2-yl)methanone] | < 100 | < 100 | – | –
COc1ccc(C(=O)c2cc3cc(C)n(CC4CCOCC4)c3s2)c(F)c1 [Compound 145, (2-fluoro-4-methoxyphenyl)(5-methyl-6-((tetrahydro-2H-pyran-4-yl)methyl)-6H-thieno[2,3-b]pyrrol-2-yl)methanone] | < 100 | < 100 | – | –
CCOc1ccc(C(=O)c2cc3cc(C)n(CCN4CCOCC4)c3s2)cn1 [Compound 150, (6-Ethoxypyridin-3-yl)(5-methyl-6-(2-morpholinoethyl)-6H-thieno[2,3-b]pyrrol-2-yl)methanone] | 100 to 1000 | < 100 | – | –
